Data reported in patent US20150328169A1, “POLYMERIC PARTICLES-BASED TEMOZOLOMIDE DOSAGE FORM” (OY FILANA LTD, priority 2012, published 2015).

How the values were obtained:
B16 melanoma tumor = assay: Antitumor activity in vivo, solid tumor of B-16 mouse melanoma; parameters: species or system mice; conditions: 40 mg/kg, 9th day of treatment
[1] = clinical trials; cited from earlier work
Balb/c mice = assay: Acute toxicity, single intraperitoneal dose, Litchfield-Wilcoxon; type: in vivo; conditions: i.p. single dose; for LD16 / LD84 / LD100: 14th day
Procedure: (§1) The comparative analysis of the acute toxic action of the temozolomide substance and of the polymeric composition based thereon (Composition 1 as in Example 1) was performed on male and female Balb/c mice weighing 19-21 g as of the time of testing, 6 animals in each group. The mice were kept in standard cages No. 4, in the conditions of unlimited access to water and food, at natural lighting changes. Testing the toxic action of the drugs started upon a two-week isolation period of the animals. The drug was administered intraperitoneally, as a single dose. Water for injection was used as a medium. Upon the drug administration, the animals were continuously monitored for 24 hours. The total observation time was 28 days. According to the research results, the LD50 values were calculated as per the state of animals on the 14th day upon the administration of the drugs. The value of the mean lethal dose (LD50) was determined by Litchfield-Wilcoxon method [Belenky M. L. Elementy kolichestvennoy otsenki farmakologicheskogo effekta [In Russian: Elements of Drug-Induced Effect Quantitative Estimation]/2-e izd. pererab. i dop. L.: Medgiz, 1963. p. 81-106].

[2] = as above; type: in vivo, mice; conditions: mouse, in vivo, ip, i.p. single dose, 14th day
Procedure: as §1

## Cn1nnc2c(C(N)=O)ncn2c1=O [Temozolomide Substance, 8-carbamoyl-3-methyl-imidazo[5,1-d]-1,2,3,5-tetrazin-4-(3H)-one]
B16 melanoma tumor
  tumor growth inhibition (TGI): 90%
[1]
  half lifetime: 1.8 h
Balb/c mice; female Balb/c mice
  Toxic dose range: Toxic dose range was 426.5-526.7 mg/kg
  LD16: LD16 426.5 mg/kg
  LD84: LD84 506.7 mg/kg
  LD100: LD100 526.7 mg/kg
Balb/c mice; male Balb/c mice
  Toxic dose range: Toxic dose range was 424.0-543.5 mg/kg
  LD16: LD16 424.0 mg/kg
  LD84: LD84 519.6 mg/kg
  LD100: LD100 543.5 mg/kg
[2]; female Balb/c mice
  LD50 at 14 days: 467 mg/kg
[2]; male Balb/c mice
  LD50 at 14 days: 472 mg/kg
